# Measured values: PubChem BioAssay AID212 (DTP/NCI, 2004)
# Several values for one entry are separate records, joined by “and”; a condition that tells them apart may be missing. Equal entries are not always repeated. Inconclusive results are not listed.
# System: BDF1 mice, colon carcinoma 38 sc, T/C %
# Test: NCI In Vivo Anticancer Drug Screen. Data for tumor model Colon Carcinoma 38 (subcutaneous) in B6D2F1 (BDF1) mice
# Details: endpoint: median tumor weight (est.), higher = larger tumour
# Summary of the method: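 T/C readout: treated group (T) measurement over vehicle control group (C) measurement. Endpoint is survival or tumor size in mice bearing a transplanted tumor.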
# [1] = dose: 25.0 mg/kg/injection, schedule: Q07DX002 (ip), vehicle: saline
# [2] = dose: 25.0 mg/kg/injection, schedule: Q07DX002 (ip), vehicle: suspension in saline
# [3] = dose: 50.0 mg/kg/injection, schedule: Q07DX002 (ip), vehicle: saline
# [4] = dose: 100.0 mg/kg/injection, schedule: Q07DX002 (ip), vehicle: saline
# [5] = dose: 200.0 mg/kg/injection, schedule: Q07DX002 (ip), vehicle: saline
# [6] = dose: 400.0 mg/kg/injection, schedule: Q07DX002 (ip), vehicle: saline
# [7] = dose: 400.0 mg/kg/injection, schedule: Q07DX002 (ip), vehicle: suspension in saline
# [8] = dose: 800.0 mg/kg/injection, schedule: Q07DX002 (ip), vehicle: saline
# [9] = dose: 800.0 mg/kg/injection, schedule: Q07DX002 (ip), vehicle: suspension in saline
# [10] = dose: 6.25 mg/kg/injection, schedule: Q07DX002 (ip), vehicle: saline with Tween-80
# [11] = dose: 12.5 mg/kg/injection, schedule: Q07DX002 (ip), vehicle: saline with Tween-80
# [12] = dose: 25.0 mg/kg/injection, schedule: Q07DX002 (ip), vehicle: saline with Tween-80
# [13] = dose: 200.0 mg/kg/injection, schedule: Q07DX002 (ip), vehicle: saline with Tween-80
# [14] = dose: 50.0 mg/kg/injection, schedule: Q07DX002 (ip), vehicle: saline with Tween-80
# [15] = dose: 6.25 mg/kg/injection, schedule: Q07DX002 (ip), vehicle: saline
# [16] = dose: 12.5 mg/kg/injection, schedule: Q07DX002 (ip), vehicle: saline
smiles,measurement,setting,value
CCOC(=O)C1=C(C#N)C2(CCC(OCc3ccccc3)CC2)C(=O)O1 (stereo not given),T/C,[1],47 % of control
same,T/C,[2],87 % of control
same,T/C,[3],53 % of control
same,T/C,[4],35 % of control
same,T/C,"dose: 100.0 mg/kg/injection, schedule: Q07DX002 (ip), vehicle: suspension in saline",115 % of control
same,T/C,[5],73 % of control
same,T/C,[6],47 % of control
same,T/C,[7],102 % of control
same,T/C,[8],64 % of control
same,T/C,[9],102 % of control
Nc1nnc[se]1,T/C,[10],79 % of control and 100 % of control
same,T/C,[11],66 % of control and 73 % of control
same,T/C,[12],86 % of control and 89 % of control
same,T/C,[13],50 % of control
CNC(=O)n1c(N)nc(-c2ccccc2)c1-c1ccccc1,T/C,[11],80 % of control
same,T/C,[12],99 % of control
same,T/C,[14],119 % of control
same,T/C,"dose: 100.0 mg/kg/injection, schedule: Q07DX002 (ip), vehicle: saline with Tween-80",98 % of control
NC(CCl)=NCC12CC3CC(CC(C3)C1)C2,T/C,"dose: 6.25 mg/kg/injection, schedule: Q07DX003 (ip), vehicle: Klucel (hydroxypropylcellulose) (HPC)",72 % of control
same,T/C,"dose: 25.0 mg/kg/injection, schedule: Q07DX003 (ip), vehicle: Klucel (hydroxypropylcellulose) (HPC)",39 % of control
same,T/C,"dose: 100.0 mg/kg/injection, schedule: Q07DX003 (ip), vehicle: Klucel (hydroxypropylcellulose) (HPC)",94 % of control
C=C(C)C(=NC(C)(C)C)Nc1ccccc1,T/C,[11],100 % of control
same,T/C,[12],101 % of control
same,T/C,[14],103 % of control
same,T/C,[13],108 % of control
same,T/C,"dose: 400.0 mg/kg/injection, schedule: Q07DX002 (ip), vehicle: saline with Tween-80",100 % of control
C(CSC1=NCCN1)CSC1=NCCN1,T/C,[1],112 % of control
same,T/C,[3],96 % of control
same,T/C,[5],120 % of control
COc1cccc2c1C(CO)N1C(C#N)C3CC(C(=O)O)C(C1C2)N3C (stereo not given),T/C,[15],71 % of control
same,T/C,[16],45 % of control
same,T/C,[1],108 % of control
same,T/C,[3],80 % of control
same,T/C,[4],66 % of control
N=C(N)CCCCCCCCC(=N)N,T/C,"dose: 1.56 mg/kg/injection, schedule: Q07DX002 (ip), vehicle: saline",102 % of control
same,T/C,"dose: 3.12 mg/kg/injection, schedule: Q07DX002 (ip), vehicle: saline",88 % of control and 99 % of control
same,T/C,[15],107 % of control
same,T/C,[16],76 % of control
same,T/C,[1],112 % of control
CSc1cc(=O)n2c3ccccc3c3ccnc1c32,T/C,"dose: 1.25 mg/kg/injection, schedule: Q07DX002 (ip), vehicle: saline with Tween-80",60 % of control
same,T/C,"dose: 2.5 mg/kg/injection, schedule: Q07DX002 (ip), vehicle: saline with Tween-80",57 % of control and 77 % of control
CCCCCCCCCCCCCC#CC(=O)O,T/C,[10],76 % of control
same,T/C,[11],92 % of control
same,T/C,[12],75 % of control
same,T/C,[14],84 % of control
O=C(NO)c1ccccc1,T/C,[1],70 % of control
same,T/C,[2],168 % of control
same,T/C,[3],83 % of control
same,T/C,[4],63 % of control
same,T/C,[5],80 % of control
same,T/C,"dose: 200.0 mg/kg/injection, schedule: Q07DX002 (ip), vehicle: suspension in saline",165 % of control
same,T/C,[6],70 % of control
same,T/C,[7],103 % of control
same,T/C,[8],89 % of control
same,T/C,[9],105 % of control
